Structures can show the parent of a compound that is named as a salt. Where two headings read alike, the source gives them in different places.
Key:
[1] = target: T1, vanilloid receptor VR1 (capsaicin receptor) (Rattus norvegicus, UniProt O35433); test: Determination of affinity for vanilloid receptor VR1 ([3H] resiniferatoxin binding, rat spinal cord membranes); design: species or system Sprague Dawley rats
T1 construct: isolated from the spinal cord of male Sprague Dawley rats (breeder: Charles River Deutschland, 32699 Extertal) and used for preparation of the membrane; from tissue; host or cells: rat spinal cord (cervical region and one third of the thoracic region) membranes
T1 sequence (O35433 whole entry): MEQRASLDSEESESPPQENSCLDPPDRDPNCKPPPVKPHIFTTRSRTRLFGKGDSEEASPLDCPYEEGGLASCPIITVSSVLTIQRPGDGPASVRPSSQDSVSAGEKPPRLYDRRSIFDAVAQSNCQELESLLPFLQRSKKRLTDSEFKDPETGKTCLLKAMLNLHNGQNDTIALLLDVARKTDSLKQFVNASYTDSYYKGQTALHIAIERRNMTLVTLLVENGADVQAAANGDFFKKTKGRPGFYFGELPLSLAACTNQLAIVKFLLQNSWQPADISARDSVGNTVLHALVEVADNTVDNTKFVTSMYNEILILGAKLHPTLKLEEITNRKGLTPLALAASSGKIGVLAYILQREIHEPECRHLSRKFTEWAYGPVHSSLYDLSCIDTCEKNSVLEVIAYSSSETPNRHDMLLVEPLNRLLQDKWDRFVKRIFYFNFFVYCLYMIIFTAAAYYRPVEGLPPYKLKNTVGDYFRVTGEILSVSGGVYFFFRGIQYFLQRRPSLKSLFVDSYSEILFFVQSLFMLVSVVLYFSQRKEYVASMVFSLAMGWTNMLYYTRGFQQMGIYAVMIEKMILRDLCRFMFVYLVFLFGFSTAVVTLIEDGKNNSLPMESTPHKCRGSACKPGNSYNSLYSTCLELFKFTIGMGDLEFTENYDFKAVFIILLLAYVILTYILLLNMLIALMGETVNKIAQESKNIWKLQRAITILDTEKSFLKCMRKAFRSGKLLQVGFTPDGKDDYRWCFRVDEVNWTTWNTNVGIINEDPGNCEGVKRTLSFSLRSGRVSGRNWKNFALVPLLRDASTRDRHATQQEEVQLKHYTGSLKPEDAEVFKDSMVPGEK
Description: This method was developed on the basis of the publication by Acs et al., J. Neurochem. 65, 301-308 (1995). The corresponding description is hereby introduced as a reference and is deemed to be part of the disclosure.
• Sprague Dawley rats weighing between 150-300 g • (breeder: Charles River Deutschland, 32699 Extertal, Germany) • HEPES (item no. H-3375, SIGMA) • NaCl (item no. 6400.1000; Merck) • KCl (item no.: 4936.1000; Merck) • HCl (item no.: 1.00317; Merck) • [^3H] resiniferatoxin ([^3H] RTX) (item no.: NET-1132, Perkin-Elmer) • Resiniferatoxin (RTX, cold) (item no.: 550-179-M001, Alexis) • D-Glucose (item no.: 1.08337.1000, Merck) • Sucrose (item no.: S-9378, Sigma) • α1-acid glycoprotein (item no.: G-3643, Sigma) • BSA (bovine serum albumin, item no.: A-2153, Sigma) • GF/B filter mats (Brandel Inc., cat. no. FP 100, size: 2¼″×12¼″)
Buffer: (Concentration values in brackets in each case in mM)
• HEPES (10); KCl (5); NaCl (5.8); CaCl (0.75); MgCl (2.0); D-glucose (12); • sucrose (137). The pH value is adjusted at room temperature using 20% strength HCl. B. Preparation of Membranes
The cervical region and one third of the following thoracic region is isolated from the spinal cord of male Sprague Dawley rats (breeder: Charles River Deutschland, 32699 Extertal) and used for preparation of the membrane. After the combined tissue is weighed, it is homogenized in ice-cooled buffer of the above-stated composition. 20 ml of buffer were used per 1 g of tissue (1:20 weight/volume). Homogenisation performed with a homogeniser from Kinematica, model Polytron PT-3000 with PT-DA-3012/2 drive unit. The spinal cord tissue is disrupted within 60 seconds in the cold buffer with ice cooling at a rotational speed of 6000 rpm. The material is then centrifuged for 10 minutes at 1000 g and +4° C. and the resultant precipitate discarded. The […] in the same volume of buffer of the above-stated composition. The material is then centrifuged for 40 minutes at 48,000 g and +4° C. and the supernatant discarded. The resultant precipitate is resuspended in 30 ml of buffer of the above-stated composition and used in this form in the vanilloid receptor (VR1) assay.
Incubation is performed in the water bath for one hour at 37° C. The samples are then placed in an ice bath for 15 minutes. In order to minimise nonspecific adsorption of the RTX, 100 μg of α1-acid glycoprotein (in 50 μl of buffer) are added to each incubation tube. The samples are then thoroughly mixed on a vortex shaker and left to stand for 10 minutes. The batches are then filtered with the assistance of the model M-24R “Brandel Cell Harvester” through a GF/B glass fiber filter mat which has been presoftened in tris buffer. The filter is then rinsed through 3 times with 4 ml portions of ice-cold HEPES buffer of the above-stated composition for each sample. The filters are transferred into scintillation counter vessels, each is combined with a 10 ml portion of “Ready Protein” scintillating material, and the vessels are closed with screw caps. The vessels are shaken on the vortex shaker and left to stand for at least 15 hours in the fume cupboard. The samples are then measured on the β-counter (model 1409 Wallac, Perkin Elmer, 63110 Rogau-Jügesheim, Germany).

vanilloid receptor (VR1) = target: T2, vanilloid receptor (VR1) (Rattus norvegicus, UniProt O35433); test: Functional investigations on vanilloid receptor (VR1): Ca2+ influx FLIPR assay in CHO K1 cells stably transfected with the VR1 gene; assay type: cell-based, rats; conditions: method (b), 10 μM, 1–3 measurements; for inhibition at 10 µM: CHO-K1, read-out: VR1 inhibition in rats (10 μM) [%]
T2 construct: expressed in transfected cells; host or cells: CHO K1 cells (ECACC)
T2 sequence (O35433 whole entry): as above
Description: (b) Functional Investigations on Vanilloid Receptor (VR1)
The agonistic or antagonistic action of the substances to be investigated on the vanilloid receptor (VR1) may be determined with the following assay. According to this assay, the influx of Ca^2+ through the channel is quantified with the assistance of a Ca^2+-sensitive dye (type Fluo4, Molecular Probes Europe BV, Leiden, Netherlands) in a Fluorescent Imaging Plate Reader (FLIPR, Molecular Devices, Sunnyvale, USA).
Chinese hamster ovary cells (CHO K1 cells, European Collection of Cell Cultures (ECACC), Great Britain) are stably transfected with the VR1 gene. For functional investigations, these cells are plated out onto poly-D-lysine-coated, black 96 well plates with a clear bottom (BD Biosciences, Heidelberg, Germany) at a density of 25,000 cells/well. The cells are incubated overnight at 37° C. and 5% CO2 in a culture medium (Ham's Nutrient Mixture F12, 10 vol. % FCS (foetal calf serum), 18 μg/mL L-proline). On the following day, the cells are incubated with Fluo4 (Fluo4 2 μM, Pluronic F127 0.01 vol. %, Molecular Probes in HBSS (Hank's buffered saline solution), Gibco Invitrogen GmbH, Karlsruhe, Germany) for 30 minutes at 37° C. The plates are then washed 3 times with HBSS buffer and, after a further 15 minutes' incubation at room temperature, used for Ca^2+ measurement in the FLIPR. Ca^2+-dependent fluorescence is here measured before and after addition of the substances to be investigated (wavelength λex=488 nm, λem=540 nm). Quantification proceeds by measuring the highest fluorescence intensity (FC, fluorescence counts) over time.
The FLIPR protocol comprises 2 additions of substance. […] The percentage inhibition in comparison with the maximum achievable inhibition with 10 μM capsazepine is calculated.

Structure (SMILES)	inhibition at 10 µM (vanilloid receptor (VR1)) [%]	VR1 activation in rats (10 μM) [%] (vanilloid receptor (VR1))	other results
CCCCC/C=C\C/C=C\C/C=C\C/C=C\CCCC(=O)NCc1ccc(O)c(OC)c1 [Arvanil]			IC50 ([1]; [3H] RTX 100 pM, rat spinal cord membranes, comparison substances, read-out: IC50 (VR-1 receptor affinity, reference data)): 8.9 µM
COc1cc(CNC(=O)CCCCCCC(C)C)ccc1O [Dihydrocapsaicin]			IC50 [1]: 2.72 µM
CCCCCCCNc1c(-c2ccoc2)nc2ccccn12 [Example 6, (2-Furan-3-yl-imidazo[1,2-a]pyridin-3-yl)-heptyl-amine hydrochloride]	66.4		
CCCCCC(C)(C)Nc1c(-c2ccoc2)nc2ccccn12 [Example 7, (1,1-Dimethyl-hexyl)-(2-furan-3-yl-imidazo[1,2-a]pyridin-3-yl)-amine hydrochloride]	46		
CCCCCCCNc1c(-c2ccoc2)nc2cc(C)ccn12.Cl [Example 11, (2-Furan-3-yl-7-methyl-imidazo[1,2-a]pyridin-3-yl)-heptyl-amine hydrochloride]	81.7	50.3	
CCCCCCCCNc1c(-c2ccoc2)nc2cc(C)ccn12.Cl [Example 12, (2-Furan-3-yl-7-methyl-imidazo[1,2-a]pyridin-3-yl)-octyl-amine hydrochloride]	84.6	36.9	
CCCCCC(C)(C)Nc1c(-c2ccoc2)nc2cc(C)ccn12.Cl [Example 14, (1,1-Dimethyl-hexyl)-(2-furan-3-yl-7-methyl-imidazo[1,2-a]pyridin-3-yl)-amine hydrochloride]	97.9	52.1	
CCCCCCC(C)(C)Nc1c(-c2ccoc2)nc2cc(C)ccn12.Cl [Example 15, (1,1-Dimethyl-heptyl)-(2-furan-3-yl-7-methyl-imidazo[1,2-a]pyridin-3-yl)-amine hydrochloride]	92.5	49	
CCCCCCCC(C)(C)Nc1c(-c2ccoc2)nc2cc(C)ccn12 [Example 16, (1,1-Dimethyl-octyl)-(2-furan-3-yl-7-methyl-imidazo[1,2-a]pyridin-3-yl)-amine hydrochloride]	31.8		
CCCCCC(C)(C)Nc1c(-c2ccsc2)nc2cc(C)ccn12.Cl [Example 17, (1,1-Dimethyl-hexyl)-(7-methyl-2-thiophen-3-yl-imidazo[1,2-a]pyridin-3-yl)-amine hydrochloride]	97.5	68.9	
CCCCCCC(C)(C)Nc1c(-c2ccsc2)nc2cc(C)ccn12.Cl [Example 18, (1,1-Dimethyl-heptyl)-(7-methyl-2-thiophen-3-yl-imidazo[1,2-a]pyridin-3-yl)-amine hydrochloride]	62.8	45.3	
CCCCCCCCCNc1c(-c2cccnc2)nc2cc(C)ccn12 [Example 23, (7-Methyl-2-pyridin-3-yl-imidazo[1,2-a]pyridin-3-yl)-nonyl-amine hydrochloride]	34.4		
CCCCCCCCNc1c(-c2ccncc2)nc2cc(C)ccn12 [Example 25, (7-Methyl-2-pyridin-4-yl-imidazo[1,2-a]pyridin-3-yl)-octyl-amine hydrochloride]	33.2		
CCCCCC(C)(C)Nc1c(-c2ccncc2)nc2cc(C)ccn12 [Example 26, (1,1-Dimethyl-hexyl)-(7-methyl-2-pyridin-4-yl-imidazo[1,2-a]pyridin-3-yl)-amine hydrochloride]	32.1		
CCCCCCCCNc1c(-c2ccoc2)nc2ccc(C)cn12 [Example 27, (2-Furan-3-yl-6-methyl-imidazo[1,2-a]pyridin-3-yl)-octyl-amine hydrochloride]	61.1		
CCCCCC(C)(C)Nc1c(-c2ccoc2)nc2ccc(C)cn12 [Example 28, (1,1-Dimethyl-hexyl)-(2-furan-3-yl-6-methyl-imidazo[1,2-a]pyridin-3-yl)-amine hydrochloride]	36.6		
CC1(C)C[C@H]2C=C(C=O)[C@]3(C=O)C[C@]3(C)[C@H]2C1 [Isovelleral]			IC50 [1]: 7.22 µM
C=C(C)[C@]12C[C@@H](C)[C@@]34O[C@](Cc5ccccc5)(O[C@@H]1[C@@H]3C=C(COC(=O)Cc1ccc(O)c(OC)c1)C[C@]1(O)C(=O)C(C)=C[C@@H]41)O2 [Resiniferatoxin]			IC50 [1]: 0.00021 µM

From patent publication US7592351B2, “Substituted imidazo[1,2-a]pyridine compounds and pharmaceutical preparations containing substituted imidazo[1,2-a]pyridine compounds” (Gruenenthal GmbH, priority 2004, dated 2009)
